Reference: PubChem BioAssay (NCI)
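How tested: cells in 96-well plates exposed to compound for 48 hours at five concentrations. TGI denotes the concentration required for complete inhibition of growth.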

Key:
Experiment in all cases: inhibition of tumour cell growth, NCI panel, 48 h
786-0 renal = system: 786-0 renal
A498 renal = system: A498 renal
A549 NSCLC = system: A549 NSCLC
ACHN renal = system: ACHN renal
CAKI-1 renal = system: CAKI-1 renal
CCRF-CEM leukemia = system: CCRF-CEM leukemia
COLO 205 colon = system: COLO 205 colon
DLD-1 colon = system: DLD-1 colon
DMS 114 small cell lung = system: DMS 114 small cell lung
EKVX NSCLC = system: EKVX NSCLC
HCT-116 colon = system: HCT-116 colon
HL-60(TB) leukemia = system: HL-60(TB) leukemia
HOP-62 NSCLC = system: HOP-62 NSCLC
HOP-92 NSCLC = system: HOP-92 NSCLC
HT29 colon = system: HT29 colon
K-562 leukemia = system: K-562 leukemia
KM12 colon = system: KM12 colon
KM20L2 colon = system: KM20L2 colon
LXFL 529 NSCLC = system: LXFL 529 NSCLC
M14 melanoma = system: M14 melanoma
M19-MEL melanoma = system: M19-MEL melanoma
MALME-3M melanoma = system: MALME-3M melanoma
MOLT-4 leukemia = system: MOLT-4 leukemia
NCI-H226 lung = system: NCI-H226 lung
NCI-H23 lung = system: NCI-H23 lung
NCI-H460 lung = system: NCI-H460 lung
NCI-H522 lung = system: NCI-H522 lung
OVCAR-3 ovarian = system: OVCAR-3 ovarian
OVCAR-4 ovarian = system: OVCAR-4 ovarian
OVCAR-5 ovarian = system: OVCAR-5 ovarian
OVCAR-8 ovarian = system: OVCAR-8 ovarian
RPMI-8226 leukemia = system: RPMI-8226 leukemia
SF-268 CNS = system: SF-268 CNS
SF-295 CNS = system: SF-295 CNS
SK-MEL-2 melanoma = system: SK-MEL-2 melanoma
SK-MEL-28 melanoma = system: SK-MEL-28 melanoma
SK-MEL-5 melanoma = system: SK-MEL-5 melanoma
SK-OV-3 ovarian = system: SK-OV-3 ovarian
SN12C renal = system: SN12C renal
SNB-19 CNS = system: SNB-19 CNS
SNB-75 CNS = system: SNB-75 CNS
SNB-78 CNS = system: SNB-78 CNS
SR leukemia = system: SR leukemia
SW-620 colon = system: SW-620 colon
TK-10 renal = system: TK-10 renal
U251 CNS = system: U251 CNS
UACC-257 melanoma = system: UACC-257 melanoma
UACC-62 melanoma = system: UACC-62 melanoma
UO-31 renal = system: UO-31 renal
XF 498 CNS = system: XF 498 CNS
DMS 273 small cell lung = system: DMS 273 small cell lung
HCC-2998 colon = system: HCC-2998 colon
HCT-15 colon = system: HCT-15 colon
IGROV1 ovarian = system: IGROV1 ovarian
LOX IMVI melanoma = system: LOX IMVI melanoma
RXF 393 renal = system: RXF 393 renal
SF-539 CNS = system: SF-539 CNS

## COc1ccc(-c2ccc(CC(=O)O)cc2)cc1OC
786-0 renal
  TGI: > 100 µM
A498 renal
  TGI: > 100 µM
A549 NSCLC
  TGI: > 100 µM
ACHN renal
  TGI: > 100 µM
CAKI-1 renal
  TGI: > 100 µM
CCRF-CEM leukemia
  TGI: > 100 µM
COLO 205 colon
  TGI: > 100 µM
DLD-1 colon
  TGI: > 100 µM
DMS 114 small cell lung
  TGI: > 100 µM
EKVX NSCLC
  TGI: > 100 µM
HCT-116 colon
  TGI: > 100 µM
HL-60(TB) leukemia
  TGI: > 100 µM
HOP-62 NSCLC
  TGI: > 100 µM
HOP-92 NSCLC
  TGI: > 100 µM
HT29 colon
  TGI: > 100 µM
K-562 leukemia
  TGI: > 100 µM
KM12 colon
  TGI: > 100 µM
KM20L2 colon
  TGI: > 100 µM
LXFL 529 NSCLC
  TGI: > 100 µM
M14 melanoma
  TGI: > 100 µM
M19-MEL melanoma
  TGI: > 100 µM
MALME-3M melanoma
  TGI: > 100 µM
MOLT-4 leukemia
  TGI: > 100 µM
NCI-H226 lung
  TGI: > 100 µM
NCI-H23 lung
  TGI: > 100 µM
NCI-H460 lung
  TGI: > 100 µM
NCI-H522 lung
  TGI: > 100 µM
OVCAR-3 ovarian
  TGI: > 100 µM
OVCAR-4 ovarian
  TGI: > 100 µM
OVCAR-5 ovarian
  TGI: > 100 µM
OVCAR-8 ovarian
  TGI: > 100 µM
RPMI-8226 leukemia
  TGI: > 100 µM
SF-268 CNS
  TGI: > 100 µM
SF-295 CNS
  TGI: > 100 µM
SK-MEL-2 melanoma
  TGI: > 100 µM
SK-MEL-28 melanoma
  TGI: > 100 µM
SK-MEL-5 melanoma
  TGI: > 100 µM
SK-OV-3 ovarian
  TGI: > 100 µM
SN12C renal
  TGI: > 100 µM
SNB-19 CNS
  TGI: > 100 µM
SNB-75 CNS
  TGI: > 100 µM
SNB-78 CNS
  TGI: > 100 µM
SR leukemia
  TGI: > 100 µM
SW-620 colon
  TGI: > 100 µM
TK-10 renal
  TGI: > 100 µM
U251 CNS
  TGI: > 100 µM
UACC-257 melanoma
  TGI: > 100 µM
UACC-62 melanoma
  TGI: > 100 µM
UO-31 renal
  TGI: > 100 µM
XF 498 CNS
  TGI: > 100 µM

## N#Cc1ccccc1NC(=O)C(=O)C(C(=O)c1ccccc1F)C1OC(=O)c2ccccc21 (centres undefined)
A498 renal
  TGI: > 100 µM
A549 NSCLC
  TGI: > 100 µM
ACHN renal
  TGI: > 100 µM
CAKI-1 renal
  TGI: > 100 µM
CCRF-CEM leukemia
  TGI: 37.9 µM
COLO 205 colon
  TGI: > 100 µM
DLD-1 colon
  TGI: > 100 µM
DMS 114 small cell lung
  TGI: > 100 µM
DMS 273 small cell lung
  TGI: > 100 µM
EKVX NSCLC
  TGI: > 100 µM
HCC-2998 colon
  TGI: 53.4 µM
HCT-116 colon
  TGI: > 100 µM
HCT-15 colon
  TGI: > 100 µM
HL-60(TB) leukemia
  TGI: 54.6 µM
HOP-62 NSCLC
  TGI: > 100 µM
HOP-92 NSCLC
  TGI: > 100 µM
HT29 colon
  TGI: > 100 µM
IGROV1 ovarian
  TGI: > 100 µM
K-562 leukemia
  TGI: > 100 µM
KM12 colon
  TGI: > 100 µM
KM20L2 colon
  TGI: > 100 µM
LOX IMVI melanoma
  TGI: > 100 µM
LXFL 529 NSCLC
  TGI: > 100 µM
M14 melanoma
  TGI: > 100 µM
M19-MEL melanoma
  TGI: > 100 µM
MOLT-4 leukemia
  TGI: > 100 µM
NCI-H226 lung
  TGI: 64.4 µM
NCI-H23 lung
  TGI: > 100 µM
NCI-H460 lung
  TGI: > 100 µM
NCI-H522 lung
  TGI: 75.1 µM
OVCAR-4 ovarian
  TGI: > 100 µM
OVCAR-5 ovarian
  TGI: > 100 µM
OVCAR-8 ovarian
  TGI: > 100 µM
RPMI-8226 leukemia
  TGI: 76.7 µM
RXF 393 renal
  TGI: 87.6 µM
SF-268 CNS
  TGI: > 100 µM
SF-295 CNS
  TGI: > 100 µM
SF-539 CNS
  TGI: 82.9 µM
SK-MEL-2 melanoma
  TGI: 68.8 µM
SK-MEL-28 melanoma
  TGI: > 100 µM
SK-MEL-5 melanoma
  TGI: > 100 µM
SK-OV-3 ovarian
  TGI: > 100 µM
SN12C renal
  TGI: > 100 µM
SNB-19 CNS
  TGI: > 100 µM
SNB-75 CNS
  TGI: > 100 µM
SNB-78 CNS
  TGI: 90.2 µM
SR leukemia
  TGI: 57 µM
SW-620 colon
  TGI: > 100 µM
TK-10 renal
  TGI: > 100 µM
U251 CNS
  TGI: 40.8 µM
UACC-257 melanoma
  TGI: > 100 µM
UACC-62 melanoma
  TGI: > 100 µM
UO-31 renal
  TGI: > 100 µM
XF 498 CNS
  TGI: > 100 µM
